According to US12162864B2, “Condensed-cyclic compound” (Takeda Pharmaceutical Company Limited, priority 2018, dated 2024):

Columns and labels:
human M1 receptor = target: T1, human M1 receptor (Homo sapiens, UniProt P11229); experiment: Measurement of M1 receptor positive allosteric modulator (M1PAM) activity; format: cell-based; conditions: PAM activity in presence of acetylcholine at EC20 concentration; CHO-K1 cells stably expressing human M1 receptor; IP1 time-resolved fluorescence
T1 construct: expressed in transfected cells; host or cells: CHO-K1
T1 sequence (P11229 1-460): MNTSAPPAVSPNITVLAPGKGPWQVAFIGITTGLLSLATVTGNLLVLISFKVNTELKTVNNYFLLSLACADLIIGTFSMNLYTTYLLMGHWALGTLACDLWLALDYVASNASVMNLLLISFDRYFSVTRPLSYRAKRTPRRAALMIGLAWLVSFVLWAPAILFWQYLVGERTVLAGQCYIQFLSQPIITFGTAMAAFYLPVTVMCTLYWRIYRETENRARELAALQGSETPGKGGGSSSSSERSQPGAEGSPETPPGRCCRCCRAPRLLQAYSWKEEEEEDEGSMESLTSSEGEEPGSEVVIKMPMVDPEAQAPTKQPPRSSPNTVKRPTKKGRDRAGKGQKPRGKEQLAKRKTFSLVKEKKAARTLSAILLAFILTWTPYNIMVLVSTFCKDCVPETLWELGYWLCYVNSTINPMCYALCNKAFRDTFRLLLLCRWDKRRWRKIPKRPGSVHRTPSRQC
Experimental: Measurement of M1 Receptor Positive Allosteric Modulator (M1PAM) Activity
The activity of a test compound in the presence of acetylcholine at an EC20 concentration affording about 20% action of the maximum activity was measured as PAM activity. The method therefor is as follows. To a 384-well white plate (Greiner™) was added 4 μL of the test compound diluted with IP1 Stimulation buffer (CisBio™) containing 0.1% fatty acid-free BSA containing 80 nM acetylcholine. Freeze stock of CHO-K1 cells stably expressing human M1 receptor (hCHRMl) was prepared with IP1 Stimulation buffer (CisBio™) containing 0.1% fatty acid-free BSA, 4 μL thereof was added (10,000 cells/well) and the mixture was cultured in a 5% CO2 incubator at 37° C. for 1 hr. 4 μL of a solution (CisBio™) containing IP1-d2 and Anti-IP1-cryptate Tb conjugate was added the mixture was incubated at room temperature for 1 hr, and the time-resolved fluorescence signal was measured on an Envision plate reader (Perkin Elmer™). The activity (%) of the test compound was calculated by defining the value when acetylcholine was added at the final concentration of 20 μM as 100% and the value when DMSO was added instead of the test compound under acetylcholine-free conditions as 0%, and the EC50 value was calculated as a value of 50% of the concentration dependence curve of the test compound.

Male SD rats = experiment: Rat defecation experiment; format: in vivo; conditions: oral, mean±standard error
Experimental: Rat Defecation Experiment
Male SD rats (5-6 weeks old) were used after an acclimation period for about 1 week. A test drug (1 mg/kg or 3 mg/kg) was suspended in 0.5% methylcellulose solution and orally administered at a volume of 5 mL/kg, and the number of feces for 2 hr later was counted. Only 0.5% methylcellulose was administered to a solvent administration group.

MDR1 = target: T2, MDR1 (Homo sapiens, UniProt P08183); experiment: MDR1 membrane permeability test; format: in vitro ADME; conditions: pH 7.4, human MDR1-expressing LLC-PK1 cells, 10 μmol/L test compound, read-out: Efflux ratio (ER)
T2 construct: expressed in transfected cells
T2 sequence (P08183 whole entry): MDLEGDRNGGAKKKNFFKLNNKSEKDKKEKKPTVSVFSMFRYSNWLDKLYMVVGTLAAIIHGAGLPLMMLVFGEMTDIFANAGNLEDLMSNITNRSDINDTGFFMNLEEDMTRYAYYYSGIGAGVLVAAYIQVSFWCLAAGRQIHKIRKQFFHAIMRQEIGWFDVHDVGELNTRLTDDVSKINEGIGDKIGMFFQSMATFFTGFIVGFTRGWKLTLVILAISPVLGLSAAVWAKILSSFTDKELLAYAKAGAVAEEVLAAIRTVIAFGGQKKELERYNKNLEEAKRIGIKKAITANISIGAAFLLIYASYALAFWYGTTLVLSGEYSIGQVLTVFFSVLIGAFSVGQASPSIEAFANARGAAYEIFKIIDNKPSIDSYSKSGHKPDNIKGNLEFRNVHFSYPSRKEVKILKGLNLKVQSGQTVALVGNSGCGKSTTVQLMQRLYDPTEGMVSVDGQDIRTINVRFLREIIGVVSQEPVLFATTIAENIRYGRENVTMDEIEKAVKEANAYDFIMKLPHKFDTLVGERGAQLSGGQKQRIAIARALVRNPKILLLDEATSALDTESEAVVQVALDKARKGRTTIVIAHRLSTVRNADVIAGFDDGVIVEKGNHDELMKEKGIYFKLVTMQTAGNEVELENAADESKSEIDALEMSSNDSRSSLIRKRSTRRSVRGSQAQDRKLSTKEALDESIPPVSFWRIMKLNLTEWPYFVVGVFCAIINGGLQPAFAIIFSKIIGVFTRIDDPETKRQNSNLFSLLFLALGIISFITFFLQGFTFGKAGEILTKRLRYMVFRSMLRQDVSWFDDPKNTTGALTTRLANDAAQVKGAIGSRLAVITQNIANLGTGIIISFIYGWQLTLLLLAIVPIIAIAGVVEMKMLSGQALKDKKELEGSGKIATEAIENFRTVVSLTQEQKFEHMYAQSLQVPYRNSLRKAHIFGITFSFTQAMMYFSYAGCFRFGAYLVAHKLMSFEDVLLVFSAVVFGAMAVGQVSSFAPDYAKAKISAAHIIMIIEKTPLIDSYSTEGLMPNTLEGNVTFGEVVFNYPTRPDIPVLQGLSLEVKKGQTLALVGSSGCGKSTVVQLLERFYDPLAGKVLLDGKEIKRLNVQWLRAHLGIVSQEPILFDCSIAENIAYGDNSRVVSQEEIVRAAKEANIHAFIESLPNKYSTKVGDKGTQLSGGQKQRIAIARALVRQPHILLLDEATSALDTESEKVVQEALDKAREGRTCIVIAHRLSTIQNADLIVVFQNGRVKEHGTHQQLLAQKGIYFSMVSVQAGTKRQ
Experimental: MDR1 Membrane Permeability Test
When MDR1 is expressed in excess in LLC-PK1 cell, which is a polar cell, MDR1 is localized in apical membrane (A), thus promoting transcellular transport from the basement membrane side (B) toward direction A. When a ratio to the transcellular transport in the opposite direction is taken and a ratio to a control cell in which a mock vector has been introduced is further taken, an efflux ratio of MDR1 to simple diffusion (corrected efflux ratio) is calculated. Similarly, when a brain/plasma concentration ratio in Mdr1(−/−) mouse is divided by a brain/plasma concentration ratio in wild-type mouse, an efflux ratio of Mdr1 to simple diffusion in blood-brain barrier (BBB) (Kp, brain ratio, higher value means lower central nervous system permeability) is calculated. Adachi Y. et al. (Reference 1) has reported a positive correlation between corrected efflux ratio and Kp, brain ratio (FIG. 5(C)), and efflux ratio in MDR1 expressing cell and Kp, brain ratio (FIG. 5(B)).
To confirm the central nervous system permeability of the compounds of the present invention, a MDR1 membrane permeability test was performed by the following method.
Digoxin and lucifer yellow (LY) were purchased from Sigma-Aldrich™, Diclofenac, colchicine and alprenolol were purchased from Wako Pure Chemical Industries, Ltd., and other reagents used were commercially available products of special grade.
Human MDR1-expressing LLC-PK1 cells were cultured according to the report of Takeuchi et al. (Reference 2). Human MDR1-expressing LLC-PK1 cells were cultured in 10% fetal bovine serum (Invitrogen™), 500 μg/ml G418 (Invitrogen™), 150 ng/ml colchicine-containing M199 medium (Invitrogen™) under 5% CO2 conditions at 37° C.
Transcellular transport was performed according to the report of Sugimoto et al. (Reference 3). The cells were cultured for 3 days on HTS Transwell™ (registered trademark) 96 well permeable support (pore size 0.4 μm, 0.143 cm^2 surface area, Corning Life Sciences) having polyethylene terephthalate membrane on which the cells had been seeded at 3.45×10^4 cells/well. After preincubation in M199 medium (containing 10 mmol/L HEPES, 1% BSA, pH 7.4) for 30 min, a drug solution (10 μmol/L digoxin, 200 μmol/L LY, 10 μmol/L test compound) dissolved in M199 medium was added to the apical side or basolateral side of the Transwell™ by 75 or 250 μL each and the cells were cultured under 5% CO2 conditions at 37° C. After 1 hr, the sample was collected from the side opposite to the side where the drug solution was added, and the concentration of the test compound was measured by LC-MS/MS. As an internal standard substance, 100 ng/mL alprenolol and diclofenac were used. The analysis conditions were as follows. • LC: UFLC LC-20 (Shimadzu™) • MS/MS: API4000 (AB Sciex™ Instruments) • LC condition: gradient method
• Column: Unison UK-C18 HT (3.0 μm, 2.0×20 mm) • Column temperature: 50° C. • Flow rate: 0.7 mL/min (for 1.5 min run), 1.0 mL/min (for 1.0 min run) • Mobile phase A: 50 mM CH3COONH4:MeCN:water=1:1:8 • Mobile phase B: 50 mM CH3COONH4:MeCN=1:9 • Injection volume: 1-20 μL
LY was measured by a fluorescence plate reader (Fluoroskan Ascent FL).
Papp, A to B and Papp, B to A (apparent permeability) were calculated from the formula (1), and the efflux ratio (ER) was calculated from the formula (2).
[formula] • Amount: amount of transported digoxin/well • Area: surface area of cell monolayer (0.143 cm^2) • C0: concentration of drug solution added • Time: incubation time

| SMILES | EC50 (human M1 receptor) | number of feces 2 hr later (Male SD rats; 1 mg/kg) | number of feces 2 hr later (Male SD rats; 3 mg/kg) | efflux ratio at 1 h, 10 μmol/L (MDR1) |
| --- | --- | --- | --- | --- |
| Cn1cnc(-c2ccc(Cc3cc(C(=O)N[C@H]4CCOC[C@@H]4O)c(F)c4c3OCC4)cc2)c1 [Example 5, 1,5-anhydro-2,3-dideoxy-3-(((4-fluoro-7-(4-(1-methyl-1H-imidazol-4-yl)benzyl)-2,3-dihydro-1-benzofuran-5-yl)carbonyl)amino)-L-threo-pentitol] | 0.0037 µM | 6.3 ± 0.7 | 8.7 ± 1.2 | 7.3 |
| Cn1cc(-c2ccc(Cc3cc(C(=O)N[C@H]4CCOC[C@@H]4O)c(F)c4c3OCC4)cn2)cn1 [Example 6, 1,5-anhydro-2,3-dideoxy-3-(((4-fluoro-7-((6-(1-methyl-1H-pyrazol-4-yl)pyridin-3-yl)methyl)-2,3-dihydro-1-benzofuran-5-yl)carbonyl)amino)-L-threo-pentitol] | 0.002 µM | 6.6 ± 0.9 | – | 18 |
| COCCNC(=O)c1ccc(Cc2cc(C(=O)N[C@H]3CCOC[C@@H]3O)c(F)c3c2OCC3)cc1F [Example 13, 1,5-anhydro-2,3-dideoxy-3-(((4-fluoro-7-(3-fluoro-4-((2-methoxyethyl)carbamoyl)benzyl)-2,3-dihydro-1-benzofuran-5-yl)carbonyl)amino)-L-threo-pentitol] | 0.0042 µM | 9.9 ± 1.6 | – | 10 |
| CCOCCNC(=O)c1ccc(Cc2cc(C(=O)N[C@H]3CCOC[C@@H]3O)c(F)c3c2OCC3)cc1F [Example 14, 1,5-anhydro-2,3-dideoxy-3-(((7-(4-((2-ethoxyethyl)carbamoyl)-3-fluorobenzyl)-4-fluoro-2,3-dihydro-1-benzofuran-5-yl)carbonyl)amino)-L-threo-pentitol] | 0.02 µM | 6.8 ± 1.3 | 10.4 ± 1.1 | 9.3 |
| CNC(=O)c1ccc(Cc2cc(C(=O)N[C@H]3CCOC[C@@H]3O)c(OC)c3c2OCC3)cc1F [Example 31, 1,5-anhydro-2,3-dideoxy-3-(((7-(3-fluoro-4-(methylcarbamoyl)benzyl)-4-methoxy-2,3-dihydro-1-benzofuran-5-yl)carbonyl)amino)-L-threo-pentitol] | 0.018 µM | 5.9 ± 0.9 | – | 28 |
| COCCCNC(=O)c1ccc(Cc2cc(C(=O)N[C@H]3CCOC[C@@H]3O)c(OC)c3c2CCC3)cc1F [Example 60, 1,5-anhydro-2,3-dideoxy-3-(((7-(3-fluoro-4-((3-methoxypropyl)carbamoyl)benzyl)-4-methoxy-2,3-dihydro-1H-inden-5-yl)carbonyl)amino)-L-threo-pentitol] | 0.017 µM | 6.9 ± 1.2 | 11.4 ± 1.2 | 15 |
